Results published in patent US11766430B2, “Methods of using a phenoxypropylamine compound to treat pain” (Minerva Neurosciences, Inc., priority 2018, dated 2023).
Entries after “also recorded” stand apart in the source; their conditions may differ.

Tests used:
[1] = system: paclitaxel-induced neuropathy in rats; experiment: Other antidepressants in paclitaxel-induced neuropathy, paw withdrawal threshold (Example 7); type: in vivo; conditions: 60 min. following administration
Protocol: Two classes of antidepressants were also evaluated in Paw Withdrawal Threshold (PWT) experiments: duloxetine, a serotonin norepinephrine reuptake inhibitor, and amitriptyline, a tricyclic antidepressant.
(§1) On day 22, post-paclitaxel administration (left-most columns in FIG. 16 correspond to rats not administered paclitaxel), rats were administered vehicle (second columns from left in FIG. 16) or duloxetine (orally) and PWT was assessed 60 min. following injection. Data represents mean±s.e.m. (* p<0.05 vs. vehicle/vehicle).
as §1, with “27,” for “22,”, “17” for “16”, “17)” for “16)”, “amitriptyline” for “duloxetine”, “vehicle/vehicle, #p<0.05 vs. paclitaxel/vehicle).” for “vehicle/vehicle).”

[2] = Body weight during the chemotherapy induced neuropathic pain study (Example 5); type: in vivo, Male Sprague Dawley rats; conditions: paclitaxel days 1, 3, 5, 7; test compound on day 14; repeated measures ANOVA
Protocol: (§2) Male Sprague Dawley rats (from Envigo, Ind., USA) were used in the study. Animals were received at approximately 250 g and housed 3 per cage upon arrival. All rats were examined, handled, and weighed prior to initiation of the study to assure adequate health and suitability. During the course of the study, 12 h/12 h light/dark cycles was maintained. The room temperature was be maintained between 20 and 23° C. with a relative humidity maintained around 50%. Chow and water was provided ad libitum for the duration of the study. All testing was performed during the animal's light cycle phase. Every effort was made to minimize suffering of animals. Rats with baseline PWT less than 12 g were not included in the study. Rats were balanced by body weight and by their pre-paclitaxel PWT values. ANOVA found no significant differences between the treatment groups.

[3] = system: chemotherapy-induced peripheral neuropathic pain in rats; experiment: Paclitaxel-induced peripheral neuropathic pain, paw withdrawal threshold with von Frey filaments, single administration (Example 5); type: in vivo, Male Sprague Dawley rats
Protocol: Assessment of neuropathic pain using von Frey filaments was performed. Rats were administered paclitaxel (2 mg/kg) on four alternate days (days 1, 3, 5 and 7). Baseline and post treatment paw withdrawal thresholds (PWT) were evaluated using von Frey filaments (Semmes-Weinstein filaments, Stoelting, Wood Dale, Ill., USA) of varying stiffness (0.4, 0.7, 1.2, 2.0, 3.6, 5.5, 8.5, 10, 15, 26 g). Animals were placed on a perforated metallic platform and allowed to acclimate to their surroundings for a minimum of 15 minutes before each test session. Each filament was presented perpendicular to the plantar surface with sufficient force to cause slight buckling against the paw, and then held until a positive response is noted (paw sharply withdrawn). As described by Chaplan, S. R. et al. “Qualitative Assessment of Tactile Allodynia in the Rat Paw” Journal of Neuroscience Methods, 53 (1994), 55-63 (“Chaplan”), once the threshold was crossed, the 2 responses straddling the threshold are retrospectively designated as the first 2 responses. Four additional responses were measured to stimuli varied sequentially up or down based on the animal's response. The 6 responses in the immediate vicinity of the threshold were used to calculate the 50% g threshold: 50% g threshold=(10^[Xf+k*d])/10000
Xf is the final filament used (in log units). The parameter k is from the Appendix 1 in Chaplan and was determined by the pattern of the von Frey responses (e.g. OXOXOX where ‘O’ indicates no response and ‘X’ denotes a withdrawal). The parameter d is the difference between stimuli which Chaplan used a constant d=0.224. To accommodate for the use of the 10 g and 26 g filaments, the exact difference between stimuli were used.
as §2
Paclitaxel was purchased from Biolyse Pharma (Ontario, Canada) and was injected i.p. (2 mg/kg) on four alternate days (day 1, 3, 5 and 7) for a total of 4 injections at a dose volume of 1 mL/kg.
Rats were subsequently balanced and assigned to treatment groups based on post-paclitaxel PWT values. On test day, PWT was assessed two hours post vehicle or MIN-117 injections and one hour after gabapentin administration.
Gabapentin was purchased from Toronto Research Chemicals and was dissolved in saline and administered orally 60 minutes prior to test at a dose volume of 1 mL/kg. MIN-117 (1, 3 and 10 mg/kg), formulated in 0.5% (w/v) hydroxypropylmethylcellulose (HPMC, Sigma-Aldrich), was administered i.p. at a dose volume of 1 mL/kg. MIN-117 was administered 2 hours prior to test.

[4] = system: paclitaxel-induced peripheral neuropathic pain in rats; experiment: Prevention of paclitaxel-induced peripheral neuropathic pain, paw withdrawal threshold, chronic administration (Example 6); type: in vivo, Male Sprague Dawley rats; conditions: 100 mg/kg orally on day 14, sixty minutes prior to test (acute)
Protocol: (§3) Male Sprague Dawley rats from Envigo were used in the study. Animals were received at approximately 250 g and housed 3 per cage upon arrival. All rats were examined, handled, and weighed prior to initiation of the study to assure adequate health and suitability. During the course of the study, 12/12 light/dark cycles was maintained. The room temperature was be maintained between 20 and 23° C. with a relative humidity maintained around 50%. Chow and water was provided ad libitum for the duration of the study. All testing was performed during the animal's light cycle phase.
(§4) Paclitaxel (2 mg/kg) was purchased from Biolyse Pharma and injected i.p. on four alternate days (day 1, 3, 5 and 7) for a total of 4 injections at a dose volume of 1 mL/kg.
(§5) Gabapentin (100 mg/kg) was dissolved in saline and administered orally at a dose volume of 1 mL/kg. For prevention study, gabapentin was administered on day 14, sixty minutes prior to test. For reversal study, gabapentin was administered once daily for 2 weeks. On test days it was administered 60 minutes prior to test.
Prevention study: MIN-117 (10 mg/kg) was formulated in 0.5% (w/v) hydroxypropylmethyl cellulose (HPMC) 8°-120 centipoises in water and was administered i.p once daily for 7 or 14 days at a dose volume of 1 mL/kg. On test days, MIN-117 was administered 2 hours prior to test.
Rats were administered paclitaxel (2 mg/kg) on four alternate days (days 1, 3, 5 and 7). Baseline and post treatment Paw Withdrawal Threshold (PWT) were evaluated using von Frey filaments (Semmes-Weinstein filaments, Stoelting, Wood Dale, Ill., USA) of varying stiffness (0.4, 0.7, 1.2, 2.0, 3.6, 5.5, 8.5, 10, 15, 26 g). Animals were placed on a perforated metallic platform and allowed to acclimate to their surroundings for a minimum of 15 minutes before each test session. Each filament was presented perpendicular to the plantar surface with sufficient force to cause slight buckling against the paw, and then held until a positive response is noted (paw sharply withdrawn). As described by Chaplan et al. 1994, once the threshold was crossed, the 2 responses straddling the threshold are retrospectively designated as the first 2 responses. Four additional responses were measured to stimuli varied sequentially up or down based on the animal's response. […] The parameter k is from the Appendix 1 in Chaplan and was determined by the pattern of the von Frey responses (e.g. OXOXOX where ‘O’ indicates no response and ‘X’ denotes a withdrawal). […]
(§6) PWT was measured according to the Schematics in FIG. 9 (prevention) and FIG. 10 (reversal study).
Data was analyzed by analysis of variance (ANOVA) followed by post-hoc comparisons where appropriate. […]

[5] = system: paclitaxel-induced peripheral neuropathic pain in rats; experiment: Reversal of paclitaxel-induced peripheral neuropathic pain, paw withdrawal threshold, chronic administration (Example 6); type: in vivo, Male Sprague Dawley rats; conditions: for PWT compared to vehicle (in words): days 14, 21 and 28; for PWT after cessation of treatment (in words): 100 mg/kg orally, day 35, one week after cessation of treatment
Protocol: as §3, §4, §5
Reversal study: MIN-117 (1, 3 and 10 mg/kg) was formulated in 0.5% (w/v) hydroxypropylmethyl cellulose (HPMC) 8°-120 centipoises in water and administered i.p once daily for 2 weeks at a dose volume of 1 mL/kg. On test days, MIN-117 was administered 2 hours prior to test.
Rats were administered paclitaxel (2 mg/kg) on four alternate days (days 1, 3, 5 and 7). Baseline and post treatment Paw Withdrawal Threshold (PWT) were evaluated using von Frey filaments (Semmes-Weinstein filaments, Stoelting, Wood Dale, Ill., USA) of varying stiffness (0.4, 0.7, 1.2, 2.0, 3.6, 5.5, 8.5, 10, 15, 26 g). Animals were placed on a perforated metallic platform and allowed to acclimate to their surroundings for a minimum of 15 minutes before each test session. Each filament was presented perpendicular to the plantar surface with sufficient force to cause slight buckling against the paw, and then held until a positive response is noted (paw sharply withdrawn). As described by Chaplan et al. 1994, once the threshold was crossed, the 2 responses straddling the threshold are retrospectively designated as the first 2 responses. Four additional responses were measured to stimuli varied sequentially up or down based on the animal's response. The 6 responses in the immediate vicinity of the threshold were used to calculate the 50% g threshold: 50% g threshold=(10^[Xf+k*d])/10000 Xf is the final filament used (in log units). The parameter k is from the Appendix 1 in Chaplan and was determined by the pattern of the von Frey responses (e.g. OXOXOX where ‘O’ indicates no response and ‘X’ denotes a withdrawal). The parameter d is the difference between stimuli which Chaplan used a constant d=0.224. To accommodate for the use of the 10 g and 26 g filaments, the exact difference between stimuli were used.
as §6
Data was analyzed by analysis of variance (ANOVA) followed by post-hoc comparisons where appropriate. An effect will be considered significant if p<0.05. Data was represented as the mean and standard error to the mean (s.e.m). Statistical outliers that fell above or below 2 standard deviations of the mean were identified but not removed from the final analysis.

CNCC[C@H](Oc1cccc2ccccc12)c1cccs1 [duloxetine]
Effect on PWT in paclitaxel-treated rats (in words) ([1]; 3 mg/kg orally, day 22 post-paclitaxel): no effect on PWT | Effect on PWT in paclitaxel-treated rats (in words) ([1]; 10 mg/kg orally, day 22 post-paclitaxel): no effect on PWT | Effect on PWT in paclitaxel-treated rats (in words) ([1]; 30 mg/kg orally, day 22 post-paclitaxel): no effect on PWT

NCC1(CC(=O)O)CCCCC1 [Gabapentin, reference compound]
Body weight during the study, between groups (in words) [2]: no significant difference between groups | Paw withdrawal threshold (PWT) compared to vehicle (in words) ([3]; Day 14 after first paclitaxel, administered orally 60 minutes prior to test): significant increase in PWT | Paw withdrawal threshold (PWT), Day 14 Avg., Mean ([3]; Paclitaxel + Gabapentin (100 mg/kg), oral, 60 minutes prior to test, Count 12): 19.633 g | Mean Diff. of Day 14 Avg. PWT, Fisher's PLSD ([3]; Paclitaxel + Vehicle, Paclitaxel + Gabapentin (100 mg/kg)): −15.759 | PWT compared to vehicle (in words) [4]: significant increase in PWT; also recorded: significantly higher PWT | PWT compared to vehicle (in words) ([5]; 100 mg/kg orally once daily for 2 weeks (chronic), 1 hour post dosing): significant increase in PWT; also recorded: significantly higher PWT | PWT after cessation of treatment (in words) [5]: returned to vehicle levels | PWT after cessation of treatment (in words) ([5]; listed as gabapentin): no significant effect on PWT

Cc1nnc(-c2cc3c(OC[C@@H](O)CN4CCC(c5ccc(Cl)c(Cl)c5)CC4)cccc3o2)o1 [Compound I, (2S)-1-(4-(3,4-dichlorophenyl)piperidin-1-yl)-3-((2-(5-methyl-1,3,4-oxadiazol-2-yl)benzofuran-4-yl)oxy)propan-2-ol]
PWT compared to vehicle (in words) ([5]; 1 mg/kg i.p. once daily for 2 weeks, 2 hours post dosing): significant increases in pain with threshold | PWT compared to vehicle (in words) ([5]; 3 mg/kg i.p. once daily for 2 weeks, 2 hours post dosing): significant increases in pain with threshold | PWT compared to vehicle (in words) ([5]; 10 mg/kg i.p. once daily for 2 weeks, 2 hours post dosing): significant increases in pain with threshold

CN(C)CCC=C1c2ccccc2CCc2ccccc21 [amitriptyline]
Effect on PWT in paclitaxel-treated rats (in words) ([1]; 3 mg/kg orally, day 27 post-paclitaxel): not found to reverse paclitaxel-induced neuropathy | Effect on PWT in paclitaxel-treated rats (in words) ([1]; 10 mg/kg orally, day 27 post-paclitaxel): not found to reverse paclitaxel-induced neuropathy | Effect on PWT in paclitaxel-treated rats (in words) ([1]; 30 mg/kg orally (highest dose tested), day 27 post-paclitaxel): only partially reversed
